Results on seven molecules are retold here after patent US6300327A, “Compositions and methods for potentiation of neurotrophin activity” (The University of Southern California, priority 1997, dated 2001).

Series [1] deals with PC12 pheochromocytoma cells. Conditions: into neuron-like cells; cited from earlier work.
For series [2], the system named is PC12 cells. The settings on record: cited from earlier work.
Series [3] relates to forebrain cholinergic neurons (cultures of rat basal forebrain). The series can be described thus: ChAT activity in primary cultures of fetal rat basal forebrain (septal) cholinergic neurons treated with neurotrophins and K-252 compounds. The settings on record: for NT-3 potentiation (ChAT, cholinergic neurons): 200 ng/ml NT-3 and increasing concentrations of compound (FIG. 6); for ED50, stimulation of ChAT activity: mean±S.E., n=8. Format: cell-based. How it is done: Recombinant human NGF (rhNGF), BDNF (rhBDNF), and NT-3 (rhNT-3) and K-252b were added to primary cultures of fetal rat brain neurons containing either forebrain cholinergic or midbrain dopaminergic neurons. A broad range of concentrations of K-252b were tested in presence of 50 ng/ml rhNGF, 200 ng/ml rhBDNF and 1 μg/ml rhNT-3, growth factor concentrations producing maximal trophic actions on cholinergic neurons. The trophic action was monitored by measuring the activity of ChAT, a parameter reflecting both survival and transmitter-specific differentiation of cholinergic cells.
(§1) Primary cultures of fetal rat brain septal and mesencephalic cells were prepared in a heretofore known manner [Knusel et al., supra]. Briefly, defined areas were dissected from fetal rat brains (Wistar, E15-16, Charles River, Mass.). The septal area contained the cholinergic neurons from septum, diagonal band of Broca and nucleus basalis. The ventral mesencephalon containing the dopaminergic neurons of the substantia nigra and the ventral tegmental area was dissected and dissociated mechanically. The cells were plated in 16 mm multiwell plates precoated with polyethyleneimine (1 mg/ml, 37° C., overnight), containing 0.5 ml modified L-15 medium supplemented with 5% heat inactivated horse serum and 0.5% heat inactivated fetal calf serum. Modified L-15 was prepared [Knusel et al., "Selective and Nonselective Stimulation of Central Cholinergic and dopaminergic Development in vitro by Nerve Growth Factor, Basic Fibroblast Growth Factor, Epidermal Growth Factor, Insulin and the Insulin-like Growth Factors I and II," J. Neurosci. 10:558-570 (1990)] by adding various amino acids, vitamins, antibiotics, glucose and NaHCO3 to Leibovitz's L-15 medium (Gibco, Grand Island, N.Y.). Plating densities were 4×10^5 cells/cm^2 for basal forebrain cultures and 3×10^5 cells/cm^2 for mesencephalic cultures. Of these cells, 0.5 to 1% were cholinergic or dopaminergic, respectively. Growth factors were typically added on the second day of culture and the cells were grown for 5 or more days. For ChAT assays tissue was homogenized in 250 μl of 50 mM Tris-HCl buffer, pH 6.0 with 0.3% Triton X-100. [1-^14 C]acetylcoenzyme A (NEN) concentration was 20 μM and specific activity 4.09 Ci/mol. To measure dopamine uptake, cultures were preincubated for 5 min at 37° C. with 250 μl incubation solution (5 mM glucose, 1 mM ascorbic acid in PBS) containing 1 mM pargyline. [^3 H]dopamine (37 Ci/mmol) was then added to give a final concentration of 50 nM and the cultures were incubated for another 15 minutes. Blanks were obtained by incubating cells at 0° C.
FIG. 1 illustrates levels of ChAT activity in cultures of rat basal forebrain treated with rhNGF, rhBDNF, or rhNT- and K-252b. Growth factors were added on the second day of culture and the cells were grown for 5 days. Growth factor concentrations producing maximal elevations of ChAT activity were used. In FIG. 1, .largecircle. represents the control; .quadrature., 50 ng/ml rhNGF; Δ, 200 ng/ml rhBDNF; and .tangle-soliddn., 1 μg/ml rhNT-3. The ChAT stimulation mediated by all three neurotrophins was inhibited by K-252b at concentrations above 200 nM. […] N=4 per data point. Error bars represent SEMs and were omitted where they would have appeared smaller than the symbol.
These compounds were accordingly tested for possible NT-3 potentiation at lower concentrations than necessary for NGF inhibition. Culture conditions were as described in Example 1. Cultures were untreated (controls) or treated with 200 ng/ml NT-3 and increasing concentrations of the inhibitors. The findings are shown in FIG. 6, in which "Stau", "K2a", "K2b", "K57", "K58", "K59" represent, respectively, staurosporine, K-252a, K-252b, KT5720, KT5823, and KT5296. […] Staurosporine and KT5296 were ineffective.

Series [4] in a line: Cytotoxicity in vitro. Format: cell-based.
Series [5] has as its system phosphorylation of selected proteins. Conditions: cited from earlier work.
Series [6] has as its system chick dorsal root ganglia neurons (DRG). The series can be described thus: Survival of dissociated chick DRG neurons (embryonic day 9). Conditions: growth factor alone, embryonic day 9 DRG cultures. Format: cell-based. Here is the method:
DRGs of embryonic day 9 chicks were dissected and dissociated using enzymatic and mechanical procedures as described in the literature [Rosenthal, A. et al., "Primary Structure and Biological Activity of a Novel Human Neurotrophic Factor," Neuron 4:767-773 (1990)]. 1800 neurons were plated per well in 96-well tissue culture plates pretreated with polyornithine (500 μg/ml) and laminin (10 μg/ml). Cells were incubated for 48 hrs with or without growth factors and the indicated concentrations of K-252b. Phase-bright cells with elaborated neurites 5× the diameter of the cell bodies were then counted.
Similar to the findings obtained in primary cultures of brain cholinergic neurons, low concentration of K-252b (50 nM) potentiated the survival promoting action of a maximally effective concentration of NT-3 (FIG. 3). Survival of dissociated chick DRG neurons in presence of rhNGF (100 ng/ml) or rhNT-3 (100 ng/ml) and K-252b is illustrated in FIG. 3; concentrations on the horizontal axis are for K-252b. The columns represent means +SEMs. […] High concentrations of K-252b (10 μM) inhibited the action of NGF on sensory neurons, as found for cholinergic neurons (FIG. 3).

The test system of series [7] is trk. The series can be described thus: trk tyrosine phosphorylation in PC12 cells (immunoprecipitation, anti-phosphotyrosine immunoblot). In kind it is cell-based. Here is the method:
To measure the status of trk tyrosine phosphorylation, PC12 cells were lysed and immunoprecipitated with anti-trk serum. The trk proteins were subjected to 7.5% SDS-PAGE and analyzed by immunoblotting with anti-phosphotyrosine antibodies as described in detail in the literature [Kaplan, D. R. et al., "PDGF beta receptor stimulates tyrosine phosphorylation of GAP and association of GAP with a signaling complex," Cell 61:125-133 (1990)]. Tyrosine phosphorylation of cellular proteins was assayed by probing Western blots of lysates of PC12 cells incubated with K-252b and NT-3 or NGF with anti-phosphotyrosine antibodies. Phospholipase C gammal was identified in these blots as described elsewhere [Vetter, M.L. et al., "Nerve growth factor rapidly stimulates tyrosine phosphorylation of phospholipase C-gammal by a kinase activity associated with the product of trk protooncogene," Proc. Natl Acad. Sci. USA 88:5650-5654 (1991)].
(§2) Experiments on PC12 cells confirmed observations made on primary neuron cultures. Treatment with K-252b stimulated NT-3 induced neurite outgrowth and trk tyrosine phosphorylation in PC12 cells while inhibiting NGF induced effects. PC12 cells were incubated for 48 hours with K-252b (50 nM) and NT-3 or NGF (50 ng/ml). FIG. 4A illustrates the % cells with neurites after 48 hours incubation. Neurites were scored if they were a length of one cell body or more. PC12 cells were subsequently lysed and immunoprecipitated with anti-trk serum. trk proteins were subjected to SDS-PAGE and analyzed by immunoblotting with anti-phosphotyrosine antibodies (FIG. 4B). Lane 1, NT-3 +K-252b; lane 2, NT-3; lane 3, NGF +K-252b; lane 4, NGF. For FIG. 4C, PC12 cells were incubated for 1 hour in K-252b (50 nM or 10 μM) and with NT-3 or NGF for 5 minutes prior to lysis; other methods were the same as described for FIG. 4B. Lane 1, NT-3+10 μM K-252b; lane 2, NT-3±50 nM K-252b; lane 3, NT-3; lane 4, NGF+10 μM K-252b; lane 5, NGF+50 nM K-252b; lane 6, NGF; lane 7, untreated control.

Series [8] has as its system midbrain dopaminergic neurons (cultures of ventral mesencephalon). Description: Dopamine uptake in primary cultures of fetal rat ventral mesencephalon. Format: cell-based. Conditions: for trophic action on dopaminergic neurons (dopamine uptake): growth factor alone. How it is done:
as §1
In Table 1, dopamine uptake is given as fmol/min/culture dish. Cultures were grown in 24-well plates for 7 days in L-15 medium with 5% horse and 0.5% fetal bovine serum and treated with growth factors and K-252b from the second day of culture. rhBDNF, 200 ng/ml; des-IGF-1, 1 μg/ml; n=4; *different from respective control group, p <0.01 (Student's t-test). The apparent difference between control cultures grown in presence and absence of K-252b was statistically not significant. The experiment shown is a representative case of a total of 5 independent experiments.

Series [9] relates to PC12 cells. Description: Neurite outgrowth of PC12 cells. Format: cell-based. The settings on record: NT-3 alone. How it is done:
PC12 cells were grown as described earlier [Kaplan et al., 1990, 1991a, b]. To assess effects on neurite outgrowth, cells were incubated for 48 hours with K-252b (50 nM) and NT-3 or NGF (50 ng/ml). Neurites were scored if they were a length of one cell body or more.
as §2

As to `COC(=O)C1(O)CC2OC1(C)n1c3ccccc3c3c4c(c5c6ccccc6n2c5c31)C(=O)NC4` (stereo not drawn) [K-252a], the “effect on NGF induced morphological transformation of PC12 cells” value in series [1] is recorded as “prevents”. Also, the “effect on binding of 125I-NGF to PC12 cells” value in series [2] was “does not interfere”. In addition, the “NT-3 potentiation (ChAT, cholinergic neurons)” value (“NT-3 potentiation” below) in [3] was “potentiation similar to K-252b”. Further, the “effect on trophic action of NGF on cholinergic neurons (ChAT)” value in series [3] (relatively high dosages) was “completely and selectively prevent”. In series [4], the cytotoxicity entry is “cytotoxic”. The “effect on NGF stimulated phosphorylation of selected proteins” value in [5] (NGF stimulated) was “inhibits”. Besides, the “effect on bFGF or EGF stimulated phosphorylation of selected proteins” value in series [5] (bFGF or EGF stimulated) is recorded as “not”.
Turning to `CCCCCCOC(=O)C1(O)CC2OC1(C)n1c3ccccc3c3c4c(c5c6ccccc6n2c5c31)C(=O)NC4` (stereo not drawn) [KT5720], the “NT-3 potentiation” value in [3] is reported as “potentiation similar to K-252b”.
Take `COC(=O)C1(OC)CC2OC1(C)n1c3ccccc3c3c4c(c5c6ccccc6n2c5c31)C(=O)N(C)C4` (stereo not drawn) [KT5823]: the “NT-3 potentiation” value in series [3] is recorded as “potentiation similar to K-252b”.
Turning to `CN[C@@H]1C[C@H]2O[C@@](C)([C@@H]1OC)n1c3ccccc3c3c4c(c5c6ccccc6n2c5c31)C(=O)NC4` [staurosporine, reference compound], the “NT-3 potentiation” value in series [3] is listed as “ineffective”. In series [3] (central cholinergic neurons), the “selective inhibition of NGF” value is “selectively inhibit NGF”. In addition, the cytotoxicity entry in series [4] is given as “cytotoxic”.
On to “NGF: recombinant human nerve growth factor”, for which the “promotion of neuronal survival” value in series [6] is recorded as “most effective”. Also, the “trk tyrosine phosphorylation by growth factor alone” value is recorded as “strongly stimulated” in series [7] (48 hours) and “pronounced increase” in series [7] (acute, 5 minutes). In addition, in series [8], the “trophic action on dopaminergic neurons (dopamine uptake)” value (“trophic action on dopaminergic neurons” below) is “not”.
As for NT-3: recombinant human neurotrophin-3, the “promotion of neuronal survival” value in series [6] is recorded as “moderate effect”. Also, the “ED50, stimulation of ChAT activity” value worked out at 0.0143 ± 0.0016 µg/mL in series [3] (NT-3 + 50 nM K-252b) and 0.175 ± 0.0726 µg/mL in series [3] (NT-3 alone). The “elevation of ChAT activity relative to the NGF-induced elevation” value in [3] (NT-3 by itself) is “approximately 20%”. Besides, in series [9], the “neurite outgrowth induced by growth factor alone” value is “low levels”. The “trk tyrosine phosphorylation by growth factor alone” value is “no phosphorylation was detectable” in [7] (48 hours) and “minimal” in series [7] (acute, 5 minutes). For the same molecule, the “trophic action on dopaminergic neurons” value in series [8] is reported as “not”.

B1: rhBDNF: recombinant human brain-derived neurotrophic factor (protein, UniProt P23560 19-247, looked up)
Neurotrophic factor BDNF …: APMKEANIRGQGGLAYPGVRTHGTLESVNGPKAGSRGLTSLADTFEHVIEELLDEDQKVRPNEENNKDADLYTSRVMLSSQVPLEPPLLFLLEEYKNYLDAANMSMRVRRHSDPARRGELSVCDSISEWVTAADKKTAVDMSGGTVTVLEKVPVSKGQLKQYFYETKCNPMGYTKEGCRGIDKRHWNSQCRTTQSYVRALTMDSKKRIGWRFIRIDTSCVCTLTIKRGR
As for B1, the “Dopamine uptake, % of Control” value in series [8] (No K-252b, rhBDNF 200 ng/ml or des-IGF-1 1 μg/ml) is given as 183%. For the same molecule, the “Dopamine uptake, Mean ± SEM” value in series [8] (No K-252b, rhBDNF 200 ng/ml or des-IGF-1 1 μg/ml, n=4, 7 days) was determined as 28.0 ± 0.3 fmol/min/culture dish. The “trophic action on dopaminergic neurons” value in series [8] is on record as “trophically acts”.
